These results are taken from patent US20260007717A1, “ANTIMICROBIAL PEPTIDE COMPOUNDS AND METHODS OF USE” (priority 2022, published 2026).

Series [1] concerns pan-drug resistant (PDR) Acinetobacter baumannii YQ4. The experiment in a line: microbe, parasite or virus in culture.
The subject of series [2] is A. baumannii YQ4. As to the kind of experiment: Nematode killing assay (infection model). The note with it: NGM plate; 16 μg/ml COG1410 alone or 2 μg/ml COG1410 plus 1 μg/ml polymyxin B.
A further series concerns P. gingivalis. Format: cell-based. The note with it: anaerobic BHI broth. How it is done:
Briefly, P. gingivalis is grown under anaerobic conditions to mid-log phase as per Dominy et al. […] The microtiter plate method outlined by Jansen (ibid) was used to measure MICs. Compounds and bacteria are added to wells of a microtiter plate and grown anaerobically (P. gingivalis) or with CO2 (L. salivarius) for 24 to 72 hours. Growth is measured with light scattering at 592 nm on a plate reader and absorbance plotted against μg/ml of drug in each well.

The next series concerns A. baumannii YQ4 biofilm. As to the kind of experiment: Static biofilm inhibition, crystal violet. Format: cell-based, Acinetobacter baumannii.
For the next series, the system named is A. baumanii YQ4. As to the kind of experiment: Induction of resistance through serial passage. The note with it: after 55 passages at sub-MIC.
For another series, the system named is A. baumannii. The experiment in a line: Bactericidal efficacy in PBS, LB broth and saline. Format: cell-based, Acinetobacter baumannii. To be noted: 1×MIC, 2 h.
The test system of series [3] is A. baumannii YQ4 preformed biofilm. As to the kind of experiment: Biofilm eradication assay, crystal violet. Format: cell-based, Acinetobacter baumannii. The note with it: 24 h.
Protocol: Biofilm eradication assay was performed as described previously [24]. A. baumannii YQ4 culture at log phase was diluted into fresh LB broth to OD600 0.01 and 200 μl per well dispensed into a 96-well PVC plate. Plates were incubated at 37° C. for 48 h and washed with PBS for three times. Serial dilutions of COG1410 (0.5-128 μg/mL) were prepared using the same media and were dispensed with 200 μl into each well. Each concentration was determined in 8 wells. LB without COG1410 was used as untreated control. After incubation for another 24 h, the remaining biofilm was quantified as described above. The experiments were performed in triplicate.
Series [4] relates to Streptococcus pneumoniae, methicillin-sensitive Staphylococcus aureus, MRSA, Klebsiella pneumoniae and Pseudomonas aeruginosa. Format: cell-based.
Series [5] deals with A. baumannii YQ4. The experiment in a line: Bactericidal efficacy (LC99.9) in PBS with or without 50% human plasma. It counts as cell-based, Acinetobacter baumannii. To be noted: 2 h, listed as COG1410. On the procedure: Antibacterial activity in plasma of COG1410 was performed as described previously. […] After incubation with shaking at 200 rpm at 37° C. for 2 hours, the CFUs were counted on LB agar. LC99.9 indicates the lowest peptide concentration that kills ≥99.9% bacteria (ie. a 1000 fold reduction). The experiments were conducted independently for three times.

In series [6] the test system is pan-drug resistant (PDR) Acinetobacter baumannii YQ4.
The test system of series [7] is A. baumannii ATCC19606 and LPS-modified strains pmrAP102R and pmrAP102RmiaAI221V. As to the kind of experiment: MIC on wild-type and LPS-modified strains. Format: cell-based, Acinetobacter baumannii. The note with it: LB broth.
Protocol: MIC was determined against A. baumannii wild-type strain ATCC19606 and the corresponding LPS-defective mutants with pmrAP102R and pmrAP102RmiaAI221V mutation in LB broth.
In series [8] the test system is A. baumannii YQ4. As to the kind of experiment: ROS detection with DCFH-DA probe. It counts as cell-based, Acinetobacter baumannii.
The conditions of series [9]: single intravenous injection; cited from earlier work.
Series [10] deals with A. baumannii YQ4. How it is done: The checkerboard method was performed to determine the fractional inhibitory concentration (FIC) index between COG1410 and other antimicrobials. Two-fold serial dilutions of antimicrobials and COG1410 were conducted and mixed in the 96-well plate. […] The experiments were conducted twice independently.
Series [11] relates to A. baumannii YQ4. The experiment in a line: ATP leakage assay. It counts as cell-based, Acinetobacter baumannii. The note with it: 1×MIC, 30 min.
Protocol: ATP leakage assay was performed using the Enhanced ATP Assay Kit of Beyotime (S0027) according to the manufacturer's manual. Briefly, the log-phase culture of A. baumannii YQ4 was prepared, washed and suspended in PBS as above. This suspension was exposed to 16 μg/ml COG1410, 16 μg/ml polymyxin B and 32 μg/ml tigecycline, respectively and incubated at 37° C. for 30 min. The supernatant was harvested and used for measurement of ATP levels. 100 μl of supernatant was mixed with 100 μl working solution and the chemiluminescence was measured by Biotek Synergy H1 plate reader. Untreated sample was set as negative control. The experiments were performed in triplicate.
Series [12] relates to normal human hepatic L02 cells. As to the kind of experiment: Cytotoxicity, CCK8 assay. To be noted: 24 h.
Protocol: The cytotoxicity of COG1410 on normal liver cell L02 was assessed by Cell Counting Kit 8 (Solarbio, CA1210) according to the manufacturer's manual. Briefly, 100 μl human hepatic L02 cells were seeded in the 96-well plate with 4×10^3 cells per well in RPMI-1640 medium containing 20% FBS, and incubated at 37° C. in a 5% CO2 atmosphere for 24 h. The cells without exposure to peptide were used as negative control. Then, the L02 cells were incubated with different concentrations of COG1410 for another 24 h. 10 μl CCK8 solution was added to each well. After 2 h incubation, the optical absorbance at 450 nm was measured with BioTek synergy H1 plate reader. […] The experiments were done in triplicate.
For the next series, the system named is PDR A. baumannii YQ4. The experiment in a line: Dynamic time-kill assay in PBS.
The nature of series [13]: Stability in 100% human plasma (inhibition zone on A. baumannii YQ4). It counts as in vitro ADME.

≈ marks a conversion by molar mass, not a printed value. Where “and” joins values, the source holds several entries; their conditions need not be identical. Equal entries are not always repeated. Where two headings read alike, the source gives them in different places. Non-standard residues stand in square brackets, D forms with d. Residues, ends and D or L forms follow the SMILES beside them. Aib = CC(C)(N)C(=O)O

Protocol for A. baumanii YQ4: The initial concentration of the tested compounds was set up as 1/32×MIC and doubled every 10 passages. The 1 ml of bacterial culture was stored in 10% sterile glycerol at −80° C. every 5 passages. The MIC value of collected cultures and original strains were measured through the micro-dilution method.
Protocol for A. baumannii YQ4 biofilm: 200 μl culture was seeded in each cell of the 96-well PVC plate with OD600 0.01 (ca. 1×10^6 CFU/ml), which was exposed to different COG1410 solution with the final concentrations ranging from 0.5 to 128 μg/ml. Each concentration was determined in 8 wells. After incubation 37° C. for 48 h, the planktonic bacteria were removed by washing three times with sterilized water, followed by fixing in methanol for 15 min and staining with 0.1% crystal violet (CV) for 15 min. Excess CV was washed off and the bound CV was eluted from the biofilm into 150 μl of 95% ethanol and quantitated spectrophotometrically at 600 nm using a Biotek Synergy H1 plate reader. The experiments were performed in triplicate.
Protocol for PDR A. baumannii YQ4: For dynamic time-kill assay, the overnight culture of A. baumannii YQ4 was transferred to fresh broth with initial OD600 0.01 and grown to the logarithmic phase. 1 ml culture was harvested, washed twice with 1× phosphate-buffered saline (PBS, pH7.4), containing 8 mM NaH2PO4, 2 mM KH2PO4, 2.6 mM KCl, 136 mM NaCl), and finally suspended in 1 ml PBS with OD600 0.5, which approximately corresponds to 1×10^8 CFU/ml. […] 100 μl aliquot was respectively taken at 0, 5, 10 and 30 min, serially diluted in PBS and plated on LB agar. The CFUs were counted after incubation at 37° C. for 18 h. […] Three independent experiments were performed.
Protocol for human erythrocytes: The anti-coagulated (citrate) whole blood was pelleted by centrifugation at 700 g for 8 min, washed three times with PBS, and suspended to 0.5% (vol/vol) in PBS. […] The highest concentration was 512 μg/ml (363 μM). PBS and Triton X-100 (0.1%) were used as negative and positive controls, respectively. The plate was incubated at 37° C. for 1 h, followed by centrifuge at 1,000 rpm for 5 min at 4° C. 60 μl aliquots of the supernatant from each well were quickly transferred to a new flat-bottom 96-well plate. The optical absorbance at OD414 was measured with a microplate reader (BioTek, synergy H1). The hemolysis percentage was then normalized with respect to the averaged negative (0%) and positive (100%) controls. Three independent experiments were conducted.

Take `CN(C)c1cc(NC(=O)CNC(C)(C)C)c(O)c2c1C[C@H]1C[C@H]3[C@H](N(C)C)C(O)=C(C(N)=O)C(=O)[C@@]3(O)C(O)=C1C2=O` [tigecycline]: the MIC in [1] is 32 µg/mL (≈ 54.6 µM).

Regarding `CC(=O)N[C@@H](C)C(=O)N[C@@H](CO)C(=O)NC(C)(C)C(=O)N[C@@H](CC(C)C)C(=O)N[C@@H](CCCNC(=N)N)C(=O)N[C@@H](CCCCN)C(=O)N[C@@H](CC(C)C)C(=O)NC(C)(C)C(=O)N[C@@H](CCCCN)C(=O)N[C@@H](CCCNC(=N)N)C(=O)N[C@@H](CC(C)C)C(=O)N[C@@H](CC(C)C)C(N)=O` [SEQ ID NO: 1, acetyl-AS-aib-LRKL-aib-KRLL-amide] (Ac-AS[Aib]LRKL[Aib]KRLL-NH2), the “survival of pre-infected nematodes” value with A. baumannii YQ4 [2] is “alleviated the death of infected nematodes, but the change was not statistically significantly”. The “MIC P. gingivalis” value in the series with P. gingivalis was in the range of 16 to 64 µg/mL. For the same compound, the biofilm formation entry with A. baumannii YQ4 biofilm (0.5×MIC, 48 h) is recorded as “significantly reduced biofilm formation”. Also, in the series with A. baumannii YQ4 biofilm (1×MIC), the “biofilm mass reduced, compared with untreated controls” value amounted to 55%. In addition, the “increase of MIC” value in the series on A. baumanii YQ4 is 4 fold. Moreover, the “EC50 (half of the red blood cells lysed)” value in the series with human erythrocytes (1 h) came out at 441 µg/mL. The hemolysis entry in the series with human erythrocytes (red cells of human, 128 μg/ml) is reported as “less than 5%”. Besides, in the series with A. baumannii, the bactericidal efficacy entry is “near elimination”. The mature biofilm dispersed result in series [3] (1×MIC) is listed as “ca. 46%”. For the same compound, the biofilm eradicated result in series [3] (4×MIC) was “more than 88%”. Also, in series [4], the antimicrobial activity result was “inactive”. The LC99.9 in the series with A. baumannii YQ4 [5] (PBS with 50% human plasma) is 8 μg/ml and 5.6 μM; in the series with A. baumannii YQ4 [5] (PBS), 2 μg/ml and 1.4 μM. In addition, the MIC in [6] (A. baumannii YQ4) is 11.3 µM; in [6] (A. baumannii YQ4, LB broth) it was 16 µg/mL. In addition, the “minimal bactericidal concentration (MBC)” value in [6] (A. baumannii YQ4, listed as COG1410) was 16 μg/ml and 11.3 μM. For the same compound, in series [7], the “effect of lipidA modification of LPS on antimicrobial efficacy” value is recorded as “did not change the antimicrobial efficacy”. In addition, the ROS production result with A. baumannii YQ4 [8] (16 μg/ml) was “significantly increased ROS production”. For the same compound, in the series on A. baumannii YQ4 [8] (treatment for 20 min), the “more ROS detected after treatment” value turned out to be 30%. For the same compound, the functional outcome in series [9] is “significantly improved vestibulomotor function and spatial learning and memory”. Further, the “working concentration in the combination” value with A. baumannii YQ4 [10] (COG1410 combined with polymyxin B) amounted to 2 µg/mL. For the same compound, the FIC with A. baumannii YQ4 [10] (in combination with Ceftazidime) amounted to 0.31; in the series on A. baumannii YQ4 [10] (in combination with polymyxin B), 0.13; with A. baumannii YQ4 [10] (in combination with tetracycline) it was 0.31. Also, the ATP leakage entry with A. baumannii YQ4 [11] is “significantly more than untreated controls and the tigecycline treatment group”. Besides, in series [12], the “half-maximal (EC50) toxicity concentration” value came out at 58.9 µg/mL. Moreover, the “reduction in CFU” value in the series on PDR A. baumannii YQ4 (1×MIC, 30 min) worked out at 6 log. In addition, the “decrease of CFU” value in the series with PDR A. baumannii YQ4 (1×MIC, within 5 min) is listed as approximately 3 logs. In addition, the “killing of inoculum (1×10^8 CFU/ml)” value in the series on PDR A. baumannii YQ4 (5×MIC, within 5 min) is “completely eliminated”. Also, in [13] (37° C., first 2 h), the inhibition diameters result is “did not significantly change”. In series [13] (4 h), this compound yielded an activity reduced of 6.8%. Besides, in [13] (10 h), the activity lost amounted to 20%. The activity retained entry in series [13] (after 10 h) is on record as “more than 80%”.
